# Experimental data published in US9695155B2, “Herbicidal substituted pyrimidinyloxy benzene compounds” (E. I. DU PONT DE NEMOURS AND COMPANY, priority 2013, dated 2017).
# Key:
# corn = assay: Test A postemergence; assay type: in vivo, Zea mays
# Procedure, shortened: (§1)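 Visual 0–100 rating (100 = complete control) taken about 10 d post-treatment relative to untreated checks. Preemergence: directed soil spray on sown loam/sand pots. Postemergence: seedlings 2–10 cm, 1–2 leaf. Non-phytotoxic solvent formulation with surfactant.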
# pigweed [1] = assay: Test C preemergence; assay type: in vivo, Amaranthus retroflexus; conditions: for Pigweed plant response rating: preemergence; for Plant response rating, Pigweed: Preemergence, scale 0 to 100, 0 no effect, 100 complete control
# Procedure, shortened: (§2)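 Visual injury score versus untreated controls, 0 = no effect, 100 = complete control, taken 13 to 15 days after treatment in the greenhouse. Pre-emergence pots held loam/sand; post-emergence plants grew in sphagnum peat/vermiculite mix and were sprayed at the 1- to 4-leaf stage.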
# giant foxtail = assay: Test A postemergence; assay type: in vivo, Setaria faberii
# Procedure, shortened: as §1
# blackgrass = assay: Test A postemergence; assay type: in vivo, Alopecurus myosuroides
# Procedure, shortened: as §1
# galium = assay: Test A postemergence; assay type: in vivo, Galium aparine
# Procedure, shortened: as §1
# ragweed = assay: Test A preemergence; assay type: in vivo, Ambrosia elatior; conditions: for Ragweed plant response rating: 500 g ai/ha
# Procedure, shortened: as §1
# pigweed [2] = assay: Test C postemergence; assay type: in vivo, Amaranthus retroflexus
# Procedure, shortened: as §2
# kochia = assay: Test C postemergence; assay type: in vivo, Kochia scoparia; conditions: for Kochia plant response rating / Plant response rating, Kochia: scale 0 to 100 (0 no effect, 100 complete control)
# Procedure, shortened: as §2
# Italian ryegrass [3] = assay: Test C postemergence; assay type: in vivo, Lolium multiflorum
# Procedure, shortened: as §2
# large (Lg) crabgrass = assay: Test C preemergence; assay type: in vivo, Digitaria sanguinalis; conditions: for Crabgrass, Large plant response rating: preemergence; for Plant response rating, Crabgrass, Large: Preemergence, scale 0 to 100, 0 no effect, 100 complete control
# Procedure, shortened: as §2
# yellow nutsedge = assay: Test C preemergence; assay type: in vivo, Cyperus esculentus; conditions: for Nutsedge, Yellow plant response rating: preemergence; for Plant response rating, Nutsedge, Yellow: Preemergence, scale 0 to 100, 0 no effect, 100 complete control
# Procedure, shortened: as §2
# Italian ryegrass [4] = assay: Test A preemergence; assay type: in vivo, Lolium multiflorum; conditions: for Ryegrass, Italian plant response rating: 500 g ai/ha
# Procedure, shortened: as §1
# waterhemp = assay: Test C preemergence; assay type: in vivo, Amaranthus rudis; conditions: for Waterhemp plant response rating: preemergence; for Plant response rating, Waterhemp: Preemergence, scale 0 to 100, 0 no effect, 100 complete control
# Procedure, shortened: as §2
# Italian ryegrass [5] = assay: Test A postemergence; assay type: in vivo, Lolium multiflorum
# Procedure, shortened: as §1
# velvetleaf = assay: Test C postemergence; assay type: in vivo, Abutilon theophrasti
# Procedure, shortened: as §2
# chickweed = assay: Test C postemergence; assay type: in vivo, Stellaria media; conditions: for Chickweed plant response rating / Plant response rating, Chickweed: scale 0 to 100 (0 no effect, 100 complete control)
# Procedure, shortened: as §2
# [6] = 125 g ai/ha, 0 to 100 scale where 0 is no effect and 100 is complete control
# [7] = 500 g ai/ha, 0 to 100 scale where 0 is no effect and 100 is complete control
# [8] = 16 g ai/ha, scale 0 to 100 (0 no effect, 100 complete control)
# [9] = 62 g ai/ha, scale 0 (no effect) to 100 (complete control)
# [10] = 125 g ai/ha, scale 0 (no effect) to 100 (complete control)
# [11] = 0 to 100 scale, 0 no effect, 100 complete control, approx. 10 days
# [12] = Postemergence, 31 g ai/ha, scale 0 to 100 (0 no effect, 100 complete control), 13 to 15 days
# [13] = Postemergence, 62 g ai/ha, scale 0 to 100 (0 no effect, 100 complete control)
# [14] = 16 g ai/ha, postemergence, visual rating, 13 to 15 days
# [15] = Postemergence, 31 g ai/ha, 13 to 15 days
# [16] = 125 g ai/ha, 0 to 100 scale, 0 no effect, 100 complete control
# [17] = 0 to 100 scale where 0 is no effect and 100 is complete control
# [18] = 16 g ai/ha, postemergence, 0 is no effect, 100 is complete control
# [19] = 31 g ai/ha, postemergence, visual rating, scale 0 to 100 (0 no effect, 100 complete control), 13 to 15 days
# [20] = 125 g ai/ha, postemergence, visual rating, scale 0 to 100 (0 no effect, 100 complete control)
# [21] = Postemergence, 62 g ai/ha, scale 0 to 100 (0 no effect, 100 complete control), 13 to 15 days
# [22] = 31 g ai/ha, postemergence, visual rating, 13 to 15 days
# [23] = 125 g ai/ha, postemergence, visual rating
# [24] = Postemergence, 62 g ai/ha, 13 to 15 days
compound,measurement,setting,value
Cc1cnc(Oc2cccc(C#N)c2-n2cc(C#N)cn2)nc1 [Compound 90],"Plant response rating, Corn",corn; [6],0
same,"Plant response rating, Corn",corn; [7],80
same,Pigweed plant response rating,pigweed [1]; [8],40
same,Pigweed plant response rating,pigweed [1]; [9],98
same,Pigweed plant response rating,pigweed [1]; [10],100
same,"Plant response rating, Pigweed",pigweed [1]; 31 g ai/ha,85
same,"Plant response rating, Foxtail, Giant",giant foxtail; [6],80
same,"Plant response rating, Foxtail, Giant",giant foxtail; [7],90
same,"Plant response rating, Blackgrass",blackgrass; [6],50
same,"Plant response rating, Blackgrass",blackgrass; [7],70
same,"Plant response rating, Galium",galium; [6],90
same,"Plant response rating, Galium",galium; [7],100
same,"Plant response rating, Ragweed",ragweed; [6],50
same,Ragweed plant response rating,ragweed; [11],80
same,"Plant response rating (0 to 100), Pigweed","pigweed [2]; 125 g ai/ha, postemergence",70
same,"Plant response rating, Pigweed",pigweed [2]; [12],45
same,"Plant response rating, Pigweed",pigweed [2]; [13],45
same,Kochia plant response rating,kochia; [14],45
same,"Plant response rating (0 to 100), Kochia","kochia; 125 g ai/ha, postemergence",90
same,"Plant response rating, Kochia",kochia; [15],70
same,"Plant response rating, Kochia","kochia; Postemergence, 62 g ai/ha",45
same,"Plant response rating (0 to 100), Ryegrass, Italian","Italian ryegrass [3]; 125 g ai/ha, postemergence",0
same,"Plant response rating, Ryegrass, Italian",Italian ryegrass [3]; [12],5
same,"Plant response rating, Ryegrass, Italian",Italian ryegrass [3]; [13],5
same,"Crabgrass, Large plant response rating",large (Lg) crabgrass; [8],25
same,"Crabgrass, Large plant response rating",large (Lg) crabgrass; [9],98
same,"Crabgrass, Large plant response rating",large (Lg) crabgrass; [10],100
same,"Plant response rating, Crabgrass, Large",large (Lg) crabgrass; 31 g ai/ha,98
same,"Nutsedge, Yellow plant response rating",yellow nutsedge; [8],35
same,"Nutsedge, Yellow plant response rating",yellow nutsedge; [9],5
same,"Nutsedge, Yellow plant response rating",yellow nutsedge; [10],60
same,"Plant response rating, Nutsedge, Yellow",yellow nutsedge; 31 g ai/ha,0
same,"Plant response rating, Ryegrass, Italian",Italian ryegrass [4]; [6],0
same,"Ryegrass, Italian plant response rating",Italian ryegrass [4]; [11],30
same,Waterhemp plant response rating,waterhemp; [8],85
same,Waterhemp plant response rating,waterhemp; [9],100
same,Waterhemp plant response rating,waterhemp; [10],100
same,"Plant response rating, Waterhemp",waterhemp; 31 g ai/ha,100
same,"Plant response rating, Ryegrass, Italian",Italian ryegrass [5]; [6],30
same,"Plant response rating, Ryegrass, Italian",Italian ryegrass [5]; [7],80
same,"Plant response rating (0 to 100), Velvetleaf","velvetleaf; 125 g ai/ha, postemergence",60
same,"Plant response rating, Velvetleaf",velvetleaf; [12],55
same,"Plant response rating, Velvetleaf",velvetleaf; [13],60
same,Chickweed plant response rating,chickweed; [14],5
same,"Plant response rating (0 to 100), Chickweed","chickweed; 125 g ai/ha, postemergence",50
same,"Plant response rating, Chickweed",chickweed; [15],30
same,"Plant response rating, Chickweed","chickweed; Postemergence, 62 g ai/ha",15
N#Cc1cnn(-c2c(Oc3ncc(F)cn3)cccc2C(F)F)c1 [Compound 240],"Plant response rating, Corn",corn; [16],30
same,"Plant response rating, Corn",corn; [7],90
same,Pigweed plant response rating,pigweed [1]; [8],5
same,Pigweed plant response rating,pigweed [1]; [10],65
same,"Plant response rating, Pigweed",pigweed [1]; 62 g ai/ha,55
same,"Plant response rating, Foxtail, Giant",giant foxtail; [16],90
same,"Plant response rating, Foxtail, Giant",giant foxtail; [7],100
same,"Plant response rating, Blackgrass",blackgrass; [16],90
same,"Plant response rating, Blackgrass",blackgrass; [7],100
same,"Plant response rating, Galium",galium; [16],100
same,"Plant response rating, Galium",galium; [7],100
same,Ragweed plant response rating (0 to 100 scale),ragweed; 125 g ai/ha,90
same,Ragweed plant response rating,ragweed; [17],100
same,"Plant response rating (0 to 100), Pigweed",pigweed [2]; [18],15
same,Pigweed plant response rating,pigweed [2]; [19],30
same,"Plant response rating, Pigweed",pigweed [2]; [20],75
same,"Plant response rating, Pigweed",pigweed [2]; [21],45
same,"Plant response rating (0 to 100), Kochia",kochia; [18],40
same,Kochia plant response rating,kochia; [22],45
same,"Plant response rating, Kochia",kochia; [23],90
same,"Plant response rating, Kochia",kochia; [24],45
same,"Plant response rating (0 to 100), Ryegrass, Italian",Italian ryegrass [3]; [18],0
same,"Ryegrass, Italian plant response rating",Italian ryegrass [3]; [19],0
same,"Plant response rating, Ryegrass, Italian",Italian ryegrass [3]; [20],0
same,"Plant response rating, Ryegrass, Italian",Italian ryegrass [3]; [21],0
same,"Crabgrass, Large plant response rating",large (Lg) crabgrass; [8],75
same,"Crabgrass, Large plant response rating",large (Lg) crabgrass; [10],100
same,"Plant response rating, Crabgrass, Large",large (Lg) crabgrass; 62 g ai/ha,100
same,"Nutsedge, Yellow plant response rating",yellow nutsedge; [8],0
same,"Nutsedge, Yellow plant response rating",yellow nutsedge; [10],40
same,"Plant response rating, Nutsedge, Yellow",yellow nutsedge; 62 g ai/ha,15
same,"Ryegrass, Italian plant response rating (0 to 100 scale)",Italian ryegrass [4]; 125 g ai/ha,20
same,"Ryegrass, Italian plant response rating",Italian ryegrass [4]; [17],70
same,Waterhemp plant response rating,waterhemp; [8],50
same,Waterhemp plant response rating,waterhemp; [10],100
same,"Plant response rating, Waterhemp",waterhemp; 62 g ai/ha,100
same,"Plant response rating, Ryegrass, Italian",Italian ryegrass [5]; [16],40
same,"Plant response rating, Ryegrass, Italian",Italian ryegrass [5]; [7],100
same,"Plant response rating (0 to 100), Velvetleaf",velvetleaf; [18],10
same,Velvetleaf plant response rating,velvetleaf; [19],25
same,"Plant response rating, Velvetleaf",velvetleaf; [20],80
same,"Plant response rating, Velvetleaf",velvetleaf; [21],45
same,"Plant response rating (0 to 100), Chickweed",chickweed; [18],5
same,Chickweed plant response rating,chickweed; [22],5
same,"Plant response rating, Chickweed",chickweed; [23],55
same,"Plant response rating, Chickweed",chickweed; [24],55
